Measurements as given in patent publication US20240190872A1, “FABI INHIBITORS FOR GRAM-NEGATIVE PATHOGENS” (THE BOARD OF TRUSTEES OF THE UNIVERSITY OF ILLINOIS, priority 2021, published 2024).

Tested on: A. baumannii AR-299
Experiment: Neutropenic mouse thigh infection
Format: in vivo, CD-1 mice
Conditions: 50 mg/kg, intramuscular (2, 6, and 11 h post-infection), 26 h
Method: With formulation, MTD, and pharmacokinetic data in hand, the efficacy of fabimycin was evaluated in murine infection models. To start, a comparative assessment was made of fabimycin and Debio-1452-NH3 in two murine neutropenic infection models using a dosing regimen that is at the MTD for Debio-1452-NH3 but below the MTD for fabimycin (three doses, intramuscular, at 50 mg/kg).
Chart 1. Summary of Fabimycin in vivo models.

Cc1c(CN(C)C(=O)/C=C/c2cnc3c(c2)CC[C@H](N)C(=O)N3)oc2ccccc12 [(S)-11, (S,E)-3-(7-amino-8-oxo-6,7,8,9-tetrahydro-5H-pyrido[2,3-b]azepin-3-yl)-N-methyl-N-((3-methylbenzofuran-2-yl)methyl)acrylamide]
log reduction relative to the vehicle: 2.3 log
